Measurements: patent publication US20050043361A1, “MitoNEET polypeptide from mitochondrial membranes, modulators thereof, and methods of using the same” (priority 2002, published 2005)
Entries after “also recorded” stand apart in the source; their conditions may differ.

Legend:
mitoNEET [1] = target: T1, mitoNEET (Rattus norvegicus, UniProt B0K020); assay: Photoaffinity crosslinking of 125I-labelled thiazolidinedione probe to rat liver mitochondria, with or without competing thiazolidinedione; type: binding
T1 construct: newly prepared crude rat liver mitochondria; from tissue; host or cells: rat liver mitochondria (Sprague-Dawley rats)
T1 sequence (B0K020 1-108): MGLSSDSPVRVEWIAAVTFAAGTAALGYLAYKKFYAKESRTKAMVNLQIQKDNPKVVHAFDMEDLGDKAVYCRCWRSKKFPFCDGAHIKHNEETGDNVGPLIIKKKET
Experimental: FIG. 1. A representative 10-20% SDS-PAGE gel (Coomassie stain, left panel) and autoradiogram (right panel). Crosslinking with ^125I-PNU-1010174 was conducted in rat liver mitochondria in the absence (−) or presence of 25 μM (+) of ([6-(2-{4-[(2,4-dioxo-1,3-thiazolidin-5-yl)methyl]phenoxy}ethyl)pyridin-3-yl]acetic acid) (TZD) as described in Example 1. Lanes 1 and 2 are from the rinsed mitochondrial pellet, lanes 3 and 4 represent the same incubations solubilized with 1% Triton X 114, and lanes 5 and 6 are the ammonium sulfate (AS) precipitation of the Triton X 114 soluble material.
FIG. 2. The ammonium sulfate pellets of Triton X 114—soluble mitoNEET from 14 separate incubations conducted with or without competitor were resuspended in a total volume of 200 μl and subjected to HPLC as described in Example 4. Representative data for the minus competitor condition is shown. […] The ^125I, profile from the in-line gamma detector is shown in the lower right panel. The left hand panels show the silver-stained gel (upper left) and corresponding autoradiogram (lower left) of the relevant fractions. Data are shown for a representative rat liver mitochondrial preparation. The ^125I-crosslinked mitoNEET seen in fraction 31 was not present in the preparations crosslinked in the combined presence of ([6-(2-{4-[(2,4-dioxo-1,3-thiazolidin-5-yl)methyl]phenoxy}ethyl)pyridin-3-yl]acetic acid) (not shown). […]

mitoNEET [2] = target: T2, mitoNEET (Bos taurus, UniProt Q3ZBU2); assay: Photoaffinity crosslinking of 125I-labelled thiazolidinedione probe to bovine brain mitochondrial fractions (B3/B4); type: binding; details: stored, frozen bovine brain mitochondrial fractions (B3/B4); UV crosslinking
T2 construct: from tissue; host or cells: steer brain, sucrose-density mitochondrial fractions B3/B4
T2 sequence (Q3ZBU2 2-106 limits assumed): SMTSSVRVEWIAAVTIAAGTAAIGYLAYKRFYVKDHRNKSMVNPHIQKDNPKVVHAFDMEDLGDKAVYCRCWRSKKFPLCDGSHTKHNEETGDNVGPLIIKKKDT
Experimental: Bovine brain mitochondria were harvested from bovine brains. This procedure involved dissection of steer brains freshly obtained from a local packinghouse. The rinsed brains were homogenized in fractionation buffer (250 mM sucrose, 50 mM Tris, pH=8.0, containing 1 μg/ml pepstatin A, 5 μg/ml leupeptin, 10 μg/ml bacitracin, and 0.1 mM PMSF). Following removal of nuclei at 5000 rpm in a Beckman Ti50, the mitochondrial pellet was harvested at 20,000×g (12,500 rpm in a Beckman Ti50 rotor) and further enriched by sucrose density centrifugation. Membrane fractions were collected from top of the 1.18 and 1.20 density bands, re-suspended in 50 mM Tris, and collected by centrifugation. The factions (“B3/B4”) were stored at −80° C. until use.
Crosslinking reactions were carried out in a final volume of 200 μl, containing 100 μl membranes, 50 μl 4% DMSO with or without competing thiazolidinedione (usually 100 μM ([6-(2-{4-[(2,4-dioxo-1,3-thiazolidin-5-yl)methyl]phenoxy}ethyl)pyridin-3-yl]acetic acid), 25 μM final concentration), and 50 μl carrier-free ^125I-4-azido-N-[2-({[6-(2-{4-[(2,4-dioxo-1,3-thiazolidin-5-yl)methyl]phenoxy}ethyl)pyridin-3-yl]acetyl}amino)ethyl]-2-hydroxybenzamide (0.1-0.2 μCi/tube). […]

fatty acid oxidation = assay: Oxidation of palmitoyl CoA by solubilized mitochondria with and without synthetic mitoNEET (HPLC); type: biochemical; details: excess synthetic mitoNEET; solubilized mitochondrial preparations; CoASH, NAD, FAD, 1 mM palmitoyl CoA
Experimental: FIG. 10. Oxidation of palmitoyl CoA was measured by solubilized mitochondria with and without the addition of synthetic mitoNEET. Reactions were conducted in the presence of CoASH, NAD, FAD, and 1 mM palmitoyl CoA. Remaining palmitoyl CoA at various time points after incubation is shown in the absence (closed circles) and presence of excess synthetic mitoNEET peptide 11A (closed squares). There was no loss of substrate in the absence of mitochondrial membranes (open triangles). Substrate and generated CoA products were measured by HPLC.
Full-length mitoNEET synthesized as in Example 6 was extended to contain a N-terminal biotin. […] A number of these proteins have been identified and are know to be involved in fatty acid oxidation. […] Modulation of mitoNEET function would be expected to increase fatty acid oxidation. Such an approach to find useful modulators as described herein may be taken with synthetic peptide or membranes containing endogenous or overexpressed mitoNEET.

O=C(O)Cc1ccc(CCOc2ccc(CC3SC(=O)NC3=O)cc2)nc1 (stereo not shown) [[6-(2-{4-[(2,4-dioxo-1,3-thiazolidin-5-yl)methyl]phenoxy}ethyl)pyridin-3-yl]acetic acid]
125I-crosslinked mitoNEET peak (HPLC) in presence of competitor (mitoNEET [1]; competitor 25 μM final concentration, HPLC with in-line gamma detector, fraction 31, identical results with bovine brain fractions): lacked this peak; also recorded: not present

[N-]=[N+]=Nc1cc(O)c(C(=O)NCCNC(=O)Cc2ccc(CCOc3ccc(CC4SC(=O)NC4=O)cc3)nc2)cc1[125I] (stereo not shown)
labeling of mitoNEET by crosslinking (mitoNEET [1]; newly prepared crude rat liver mitochondria, UV crosslinking, carrier-free probe 0.1-0.2 μCi/tube): labeling of the mitoNEET
labeling of mitoNEET by crosslinking (mitoNEET [2]): labeling of the mitoNEET

B1: synthetic mitoNEET: Full-length mitoNEET polypeptide made by peptide synthesis (peptide, UniProt Q9NZ45 1-108, looked up)
chain: MSLTSSSSVRVEWIAAVTIAAGTAAIGYLAYKRFYVKDHRNKAMINLHIQKDNPKIVHAFDMEDLGDKAVYCRCWRSKKFPFCDGAHTKHNEETGDNVGPLIIKKKET
modifications: full-length chemically synthesized
notes: Full-length mitoNEET polypeptide made by peptide synthesis
effect on fatty acid oxidation (remaining palmitoyl CoA) (fatty acid oxidation): inhibits fatty acid oxidation
